Assay [1] deals with TNF-alpha production by lipopolysaccharide-stimulated macrophages. Kind of assay: Effect on TNF-alpha production by lipopolysaccharide-stimulated macrophages (ELISA). The class given is cell-based, C3H/HeNCrj mice. Conditions: five-hour culture. How it is done: Effect on TNF-Alpha Production by Lipopolysaccharide-Stimulated Macrophages Gatifloxacin was added to a culture medium at a concentration of 1, 10, or 100 μg/mL. One mL of 3% thioglycolate culture medium (Sigma) was intraperitoneally administered to C3H/HeNCrj mice (male, 11 weeks old) to induce macrophages. Six days after the administration, the animals were sacrificed, and then 10 mL of sterile RPMI 1640 (GIBCO BRL; 10% FBS-RPMI) containing 100 U/mL penicillin-100 μg/mL streptomycin (GIBCO BRL) and 10 v/v % fetal bovine serum (FBS) was intraperitoneally injected. After gentle massage of the abdomen, the 10% FBS-RPMI was collected from the abdomen cavity. After the collected 10% FBS-RPMI was centrifuged, the supernatant was removed and the peritoneal exudate cells including macrophages were harvested. The harvested peritoneal exudate cells were suspended in 10% FBS-RPMI at a concentration of […], and the suspension was plated in each well of a 24-well plate. After incubation for 1.5 hours, non-adherent cells were washed out with 10% FBS-RPMI, and macrophages adhering to the plate were obtained. […] Each content of TNF-alpha in the culture supernatant was determined by using an enzyme immunoassay (ELISA).

For assay [2], the system named is methicillin-resistant Staphylococcus aureus (MRSA) O-271 strain ocular infection. Kind of assay: Rabbit ocular infection: scoring of corneal and conjunctival findings. The class given is in vivo, Japanese White Rabbits. How it is done:
Antiinflammatory Effects on Rabbit Ocular Infection
(§1) The subject substances used for the test include […], 0.3 w/v % and 0.5 w/v % gatifloxacin eye drops. The control substances used include a 0.3 w/v % ofloxacin eye drop, a 0.5 w/v % levofloxacin eye drop and a physiological saline.
(§2) Japanese White Rabbits (male, 1.74 to 2.30 kg in weight) were generally anesthetized, and then 30 μL of 3.1×10^5 CFU/mL methicillin-resistant Staphylococcus aureus (MRSA) O-271 strain suspension was injected into a corneal stroma of each rabbit via a 27 gauge injection needle attached to a 100 μL microsyringe.
(§3) Five hours and 24 hours after the bacterial inoculation, 50 μL of each test substance was instillated into the rabbit eye using a micropipet. In the observation carried out 8, 16, 24, 32, and 48 hours after the bacterial inoculation, symptoms such as opacity of cornea, and redness and edema of conjunctiva were observed and scored based on the criteria as shown in Table 1. Each rabbit was sacrificed 52 hours after the bacterial inoculation, and then the eyeball was enucleated and cornea and conjunctiva were cut out. These tissue sections were morcellated in 2 mL of a physiological saline, diluted, and plated onto a Mueller-Hinton agar medium, and then the viable bacterial number was determined by counting the colonies formed after 48 hours.

In assay [3] the test system is methicillin-resistant Staphylococcus aureus (MRSA) O-271 strain. Kind of assay: Rabbit ocular infection: viable bacterial number in corneal and conjunctival tissues. Conditions: for Viable Bacterial Number (CFU/Cornea): 52 hours after inoculation, average. In kind it is in vivo, Japanese White Rabbits. How it is done:
as §1, §2, §3

Consider `COc1c(N2CCNC(C)C2)c(F)cc2c(=O)c(C(=O)O)cn(C3CC3)c12` (racemic) [Gatifloxacin, (±)-1-cyclopropyl-6-fluoro-1,4-dihydro-8-methoxy-7-(3-methyl-1-piperazinyl-4-oxo-3-quinolinecarboxylic acid], for which, in assay [1] (in combination with LPS 1 μg/mL, Williams' test), the “concentration significantly suppressing the increase in TNF-alpha content” value was at least 1 µg/mL. In addition, the “inhibition of LPS-stimulated TNF-alpha production (TNF-alpha content of culture supernatant)” value in assay [1] (mouse peritoneal macrophages, LPS 1 μg/mL, gatifloxacin 1, 10 or 100 μg/mL) was “dose-dependently inhibited”. In addition, the “symptoms of the corneal infection (total cornea score)” value is recorded as “dose-dependently inhibited” in assay [2] (0.1, 0.3 and 0.5 w/v % eye drops, 50 μL at 5 and 24 h after inoculation, observed until 48 hours); “strong inhibitory effect” in assay [2] (0.5 w/v % eye drop, until 48 hours after inoculation). The “conjunctival findings (total conjunctiva score)” value is listed as “stronger inhibitory effect than the ofloxacin or the levofloxacin eye drop group” in assay [2] (0.3 w/v % and 0.5 w/v % eye drops, after 32 hours); “significantly stronger inhibitory effect than the 0.5 w/v % levofloxacin eye drop group” in assay [2] (0.5 w/v % eye drop, after 48 hours). The “symptoms of the corneal infection (total cornea score), comparison with ofloxacin” value in assay [2] (eye drop concentration of 0.3 w/v % or more, vs 0.3 w/v % ofloxacin eye drop) is listed as “stronger inhibitory effect than the 0.3 w/v % ofloxacin eye drop group”. For the same compound, the “Viable Bacterial Number (CFU/Cornea)” value in assay [3] (0.1% eye drop) was 1.3 × 10^4 CFU/Cornea; in assay [3] (0.3% eye drop), 1.1 × 10^3 CFU/Cornea; in assay [3] (0.5% eye drop), 3.9 × 10^2 CFU/Cornea. Moreover, the “viable bacterial number in the corneal tissue (in words)” value is recorded as “decreased dose-dependently” in assay [3] (0.1, 0.3 and 0.5 w/v % eye drop groups); “greatly decreased” in assay [3] (0.5 w/v % eye drop).
Regarding `C[C@H]1COc2c(N3CCN(C)CC3)c(F)cc3c(=O)c(C(=O)O)cn1c23` [Levofloxacin], in assay [3] (0.5% eye drop), the “Viable Bacterial Number (CFU/Cornea)” value is 4.4 × 10^2 CFU/Cornea.
For `CC1COc2c(N3CCN(C)CC3)c(F)cc3c(=O)c(C(=O)O)cn1c23` (centres unmarked) [Ofloxacin], the “Viable Bacterial Number (CFU/Cornea)” value in assay [3] (0.3% eye drop) is listed as 2.0 × 10^5 CFU/Cornea.
